The values below come from patent US11648289B2, “Antibacterial method” (priority 2016, dated 2023).

No end group written: not given here.

For one assay, the system named is E. faecalis (2). The following applies: E. faecalis (2), Table 6B. On the procedure:
(§1) All the strains (see below) used in minimal inhibitory concentration (MIC) assays (Ovchinnikov et al., 2017, Front Microbiol., 8, p774, doi:10.3389/fmicb.2017.00774) were grown in BHI medium (Oxoid) at 30° C. without shaking. The tested strains were obtained from the LMG collection. […] NisinZ and micrococcin P1 were purified from source. Synthesized peptides were solubilized to concentrations of 10.0-0.1 mg/ml in 0.1% (vol/vol) trifluoroacetic acid and stored at −20° C. until use. Garvicin KS is made up of 3 peptides:
(§2) Bacteriocin activity was determined using a microtitre plate assay. The plates were incubated at 30° C. for 8 h and the growth was measured spectrophotometrically at 600 nm (A600) with 15 min intervals using SPECTROstarNano (BMG LABTECH, Germany). The MIC was defined as the bacteriocin concentration that inhibited the growth of the indicator strain by at least 50% in 200 μl culture (i.e., 50% of the turbidity of the control culture without bacteriocin).

A further assay relates to E. faecium (2). To be noted: E. faecium (2), Table 6B. How it is done: as §1, §2
The subject of a further assay is E. hirae (4). To be noted: E. hirae (4), Table 6B. On the procedure: as §1, §2
For a further assay, the system named is Listeria spp. (3). The following applies: Listeria spp. (3), Table 6B. How it is done:
as §1, §2

Another assay has as its system S. aureus (5). To be noted: Table 6B. On the procedure: as §1, §2
Assay [1] relates to E. faecium and E. faecalis. To be noted: 20 μl of 1 mg/ml bacteriocin on soft agar, overnight, 30° C. vs 45° C.
The test system of a further assay is SP 4012. The experiment in a line: organism not typed. To be noted: SP 4012 (S. pseudointermedius). How it is done:
as §1, §2

The next assay has as its system SP 4013. The experiment in a line: organism not typed. To be noted: SP 4013 (S. pseudointermedius). On the procedure:
as §1, §2

Another assay has as its system SP 4014. The experiment in a line: organism not typed. To be noted: SP 4014 (S. pseudointermedius). How it is done: as §1, §2
Another assay deals with S. pseudointermedius (3). To be noted: S. pseudointermedius (3), Table 6B. How it is done:
as §1, §2

Assay [2] relates to E. faecalis LMGT3358 resistant mutants. In short, it runs like this:
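Read-out is turbidity: MIC taken as the minimal bacteriocin concentration that halves growth relative to an untreated control culture. Strains were cultured in BHI at 30° C without agitation.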

A word on the MIC: it is the least concentration at which growth counts as inhibited. A lower MIC goes with a more susceptible organism.

“MKFKFNPTGTIVKKLTQYEIAWFKNKHGYYPWEIPRC [EntK1]”: the MIC is more than 25 µg/mL in the assay with E. faecalis (2); less than 0.02 to 0.4 µg/mL in the assay on E. faecium (2); 0.2 to 0.8 µg/mL in the assay on E. hirae (4); more than 50 µg/mL against Listeria spp. (3); more than 25 µg/mL with S. aureus (5). In addition, in [1], the “appearance of resistant mutants at growth temperature” value is “only appeared at 30 °C but not at 45 °C”.
In the case of “MLAKIKAMIKKFPNPYTLAAKLTTYEINWYKQQYGRYPWERPVA [EntEJ97]”, the MIC against SP 4012 was 12.5 µg/mL; against SP 4013 it was 12.5 µg/mL; against SP 4014, 12.5 µg/mL; in the assay on E. faecalis (2) it was 3.1 µg/mL; in the assay with E. faecium (2), 0.8 to 1.6 µg/mL; in the assay with E. hirae (4), 0.4 to 1.6 µg/mL. Besides, the minimum inhibitory concentration (MIC) against Listeria spp. (3) is 12.5 to 25 µg/mL; in the assay with S. pseudointermedius (3), 12.5 µg/mL. Moreover, the “resistance of lower resistance (LR) colonies compared to the WT” value in assay [2] (five LR colonies of E. faecalis) is recorded as 16-32 times. In addition, in assay [2] (seven HR colonies of E. faecalis), the “resistance of highly resistant (HR) colonies compared to the WT” value is “at least 500 times”. Also, the “appearance of resistant mutants at growth temperature” value in assay [1] was “only appeared at 30 °C but not at 45 °C”.
